Laboratory results from US20060069132A1, “Azolecarboxamide herbicides” (priority 2004, published 2006).

Key:
[1] = tested on: Russian thistle; test: Test E pre-/postemergence herbicide test; assay type: in vivo, Salsola kali
Description: (§1) Seeds of plant species selected from bipinnate beggarticks (Bidens bipinnata L.), hairy beggarticks (Bidens radiata Thuill.), bermudagrass (Cynodon dactylon (L.) Pers.), Surinam grass (Urochloa decumbens (Staph) R. D. Webster, previously named Brachiaria decumbens Stapf), large crabgrass (Digitaria sanguinalis (L.) Scop.), green foxtail (Setaria viridis (L.) P. Beauv.), goosegrass (Eleusine indica (L.) Gaertn.), johnsongrass (Sorghum halepense (L.) Pers.), kochia (Kochia scoparia (L.) Schrad.), pitted morningglory (Ipomoea lacunosa L.), purple nutsedge (Cyperus rotundus L.), common ragweed (Ambrosia elatior L.), mustard (Brassica nigra (L.) W. D. J. Koch), guineagrass (Panicum maximum Jacq.), dallisgrass (Paspalum dilatatum Poir.), barnyardgrass (Echinochloa crus-galli (L). P. Beauv.), southern sandbur (Cenchrus echinatus L.), common sowthistle (Sonchus oleraceous L.), prickly sida (Sida spinosa L.), Italian ryegrass (Lolium multiflorum Lam.), common purslane (Portulaca oleracea L.), broadleaf signalgrass (Brachiaria platyphylla (Griseb.) Nash), common groundsel (Senecio vulgaris L.), common chickweed (Stellaria media (L.) Vill/Cyr.), tropical spiderwort (Commelina benghalensis L.), annual bluegrass (Poa annua L.), downy bromegrass (Bromus tectorum L.), itchgrass (Rottboellia cochinchinensis (L.) L.f.), quackgrass (Elytrigia repens (L.) Nevski), Canada horseweed (Erigeron Canadensis L.), field bindweed (Convolvulus arvensis L.), spotted spurge (Euphorbia maculata L.), common mallow (Malva sylvestris (=s silvestris) L.), and Russian thistle (Salsola kali L. ssp. Ruthenica (Iljin) Soo) were planted and treated preemergence with test chemicals formulated in a non-phytotoxic solvent mixture which included a surfactant.
(§2) At the same time, plants selected from these weed species were treated with postemergence applications of some of the test chemicals formulated in the same manner. Plants ranged in height from 2 to 18 cm (1- to 4-leaf stage) for postemergence treatments. Treated plants and controls were maintained in a greenhouse for 12 to 14 days, after which time all species were compared to controls and visually evaluated. Plant response ratings, summarized in Table E, are based on a scale of 0 to 100 where 0 is no effect and 100 is complete control. A dash (-) response means no test result.

[2] = tested on: common groundsel; test: Test E pre-/postemergence herbicide test; assay type: in vivo, Senecio vulgaris
Description: as §1, §2

[3] = tested on: common chickweed; test: Test E pre-/postemergence herbicide test; assay type: in vivo, Stellaria media
Description: as §1, §2

[4] = tested on: common ragweed; test: Test E pre-/postemergence herbicide test; assay type: in vivo, Ambrosia elatior
Description: as §1, §2

[5] = tested on: prickly sida; test: Test E pre-/postemergence herbicide test; assay type: in vivo, Sida spinosa
Description: as §1, §2

[6] = tested on: blackgrass; test: Test C postemergence herbicide test; assay type: in vivo, Alopecurus myosuroides
Method in brief: (§3)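 Postemergence sprays applied to plants 2 to 18 cm tall (1- to 4-leaf stage); paddy species grown to 2-leaf stage under flooding. After 12 to 14 days in greenhouse, visual rating versus untreated controls on 0–100 scale (0 no effect, 100 complete control).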

[7] = tested on: canarygrass; test: Test C postemergence herbicide test; assay type: in vivo, Phalaris minor
Method in brief: as §3

[8] = tested on: wild oat; test: Test C postemergence herbicide test; assay type: in vivo, Avenafatua
Method in brief: as §3

[9] = tested on: green foxtail; test: Test C postemergence herbicide test; assay type: in vivo, Setaria viridis
Method in brief: as §3

[10] = tested on: wheat; test: Test C postemergence herbicide test; assay type: in vivo, Triticum aestivum
Method in brief: as §3

[11] = tested on: windgrass; test: Test C postemergence herbicide test; assay type: in vivo, Apera spica-venti
Method in brief: as §3

[12] = tested on: downy bromegrass; test: Test C postemergence herbicide test; assay type: in vivo, Bromus tectorum
Method in brief: as §3

[13] = tested on: Italian ryegrass; test: Test C postemergence herbicide test; assay type: in vivo, Lolium multiflorum
Method in brief: as §3

[14] = tested on: winter barley; test: Test C postemergence herbicide test; assay type: in vivo, Hordeum vulgare
Method in brief: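 Injury scored visually against controls on a 0 (no effect) to 100 (complete control) scale, 12 to 14 days after treatment in greenhouse. Flooded paddy plants treated at 2-leaf stage; postemergence plants at 1- to 4-leaf stage, 2 to 18 cm tall.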

[15] = Preemergence, 62 g ai/ha, scale 0 to 100
[16] = Preemergence, 125 g ai/ha, scale 0 to 100
[17] = Preemergence, 250 g ai/ha, scale 0 (no effect) to 100 (complete control)
[18] = Preemergence, 500 g ai/ha, scale 0 (no effect) to 100 (complete control)
[19] = Postemergence, 500 g ai/ha, scale 0 to 100
[20] = Postemergence, 250 g ai/ha, scale 0 to 100
[21] = Preemergence, 125 g ai/ha, scale 0 (no effect) to 100 (complete control)
[22] = postemergence, 125 g ai/ha, scale 0 to 100
[23] = postemergence, 62 g ai/ha, scale 0 to 100
[24] = Postemergence, 250 g ai/ha, scale 0 to 100, 0 no effect, 100 complete control
[25] = Postemergence, 500 g ai/ha, scale 0 to 100, 0 no effect, 100 complete control

For CCn1nc(C(C)(C)C)cc1C(=O)Nc1cc(C(=O)N(C)C)ccc1F [Compound 6, N-[5-[(dimethylamino)carbonyl]-2-fluorophenyl]-3-(1,1-dimethylethyl)-1-ethyl-1H-pyrazole-5-carboxamide], the “Plant response rating, Thistle” value [1, 15] was 50, the “Plant response rating, Thistle” value [1, 16] was 70 and the “Plant response rating, Thistle” value [1, 17] was 70. For the same compound, the “Plant response rating, Thistle” value [1, 18] was 80, the “Plant response rating, Groundsel” value [2, 19] was 100 and the “Plant response rating, Groundsel” value [2, 20] was 100. For the same compound, the “Plant response rating, Groundsel” value [2, 15] was 100, the “Plant response rating, Groundsel” value [2, 21] was 100 and the “Plant response rating, Groundsel” value [2, 18] was 100. For the same compound, the “Plant response rating, Groundsel” value [2, 22] was 95, the “Plant response rating, Groundsel” value [2, 23] was 20 and the “Plant response rating, Chickweed” value [3, 19] was 100. For the same compound, the “Plant response rating, Chickweed” value [3, 20] was 100, the “Plant response rating, Chickweed” value [3, 15] was 90 and the “Plant response rating, Chickweed” value [3, 21] was 95. The “Plant response rating, Chickweed” value [3, 17] was 95, the “Plant response rating, Chickweed” value [3, 18] was 100 and the “Plant response rating, Chickweed” value [3, 22] was 100. For the same compound, the “Plant response rating, Chickweed” value [3, 23] was 100, the “Plant response rating, Ragweed” value [4, 19] was 95 and the “Plant response rating, Ragweed” value [4, 20] was 95. The “Plant response rating, Ragweed” value [4, 15] was 50, the “Plant response rating, Ragweed” value [4, 21] was 80 and the “Plant response rating, Ragweed” value [4, 18] was 95. For the same compound, the “Plant response rating, Ragweed” value [4, 22] was 90 and the “Plant response rating, Ragweed” value [4, 23] was 75.
For CCNC(=O)c1ccnc(NC(=O)c2cc(C(C)(C)C)nn2CC)c1 [Compound 152], the “Plant response rating, Thistle” value [1, 19] was 80, the “Plant response rating, Thistle” value [1, 20] was 80 and the “Plant response rating, Thistle” value [1, 15] was 20. For the same compound, the “Plant response rating, Thistle” value [1, 16] was 20, the “Plant response rating, Thistle” value [1, 18] was 100 and the “Plant response rating, Prickly Sida” value [5, 19] was 85. The “Plant response rating, Prickly Sida” value [5, 20] was 60, the “Plant response rating, Prickly Sida” value [5, 15] was 20 and the “Plant response rating, Prickly Sida” value [5, 16] was 20. The “Plant response rating, Prickly Sida” value [5, 17] was 60, the “Plant response rating, Prickly Sida” value [5, 18] was 95 and the “Plant response rating, Groundsel” value [2, 19] was 95. For the same compound, the “Plant response rating, Groundsel” value [2, 20] was 95, the “Plant response rating, Groundsel” value [2, 15] was 95 and the “Plant response rating, Groundsel” value [2, 16] was 100. The “Plant response rating, Groundsel” value [2, 17] was 100, the “Plant response rating, Groundsel” value [2, 18] was 100 and the “Plant response rating, Groundsel” value [2, 22] was 90. The “Plant response rating, Chickweed” value [3, 19] was 100, the “Plant response rating, Chickweed” value [3, 15] was 90 and the “Plant response rating, Chickweed” value [3, 16] was 95. For the same compound, the “Plant response rating, Chickweed” value [3, 17] was 100, the “Plant response rating, Chickweed” value [3, 18] was 100 and the “Plant response rating, Ragweed” value [4, 19] was 75. The “Plant response rating, Ragweed” value [4, 20] was 60, the “Plant response rating, Ragweed” value [4, 15] was 20 and the “Plant response rating, Ragweed” value [4, 16] was 60. For the same compound, the “Plant response rating, Ragweed” value [4, 17] was 80, the “Plant response rating, Ragweed” value [4, 18] was 80 and the “Plant response rating, Ragweed” value [4, 22] was 50.
CCc1nn(C(C)(C)CC)nc1C(=O)Nc1cccc(C(=O)N(C)C)c1 [Compound 372] was tested, and the “Plant response rating, Thistle” value [1, 16] was 40, the “Plant response rating, Thistle” value [1, 18] was 80 and the “Plant response rating, Prickly Sida” value [5, 15] was 20. The “Plant response rating, Prickly Sida” value [5, 17] was 95, the “Plant response rating, Prickly Sida” value [5, 18] was 95 and the “Plant response rating, Groundsel” value [2, 15] was 20. For the same compound, the “Plant response rating, Groundsel” value [2, 16] was 70, the “Plant response rating, Groundsel” value [2, 17] was 70 and the “Plant response rating, Groundsel” value [2, 18] was 95. The “Plant response rating, Chickweed” value [3, 15] was 60, the “Plant response rating, Chickweed” value [3, 16] was 90 and the “Plant response rating, Chickweed” value [3, 17] was 95. For the same compound, the “Plant response rating, Chickweed” value [3, 18] was 95, the “Plant response rating, Ragweed” value [4, 15] was 10 and the “Plant response rating, Ragweed” value [4, 16] was 20. The “Plant response rating, Ragweed” value [4, 17] was 40 and the “Plant response rating, Ragweed” value [4, 18] was 70.
In the case of Cc1nn(C(C)(C)C)nc1C(=O)Nc1cccc(C(=O)N(C)C)c1 [Compound 391], the “Plant response rating, Thistle” value [1, 16] is reported as 100, the “Plant response rating, Thistle” value [1, 18] is reported as 100 and the “Blackgrass plant response rating” value [6, 19] is reported as 65. The “Plant response rating, Blackgrass” value [6, 24] was 55, the “Plant response rating, Blackgrass” value [6, 22] was 45 and the “Plant response rating, Blackgrass” value [6, 23] was 40. The “Plant response rating, Canarygrass” value [7, 24] was 60, the “Plant response rating, Canarygrass” value [7, 25] was 65 and the “Plant response rating, Canarygrass” value [7, 22] was 40. The “Plant response rating, Canarygrass” value [7, 23] was 40, the “Plant response rating, Oat, Wild” value [8, 25] was 65 and the “Plant response rating, Oat, Wild” value [8, 22] was 40. The “Plant response rating, Oat, Wild” value [8, 23] was 30, the “Plant response rating, Foxtail, Green” value [9, 24] was 60 and the “Plant response rating, Foxtail, Green” value [9, 25] was 65. The “Plant response rating, Foxtail, Green” value [9, 22] was 55, the “Plant response rating, Foxtail, Green” value [9, 23] was 55 and the “Plant response rating, Prickly Sida” value [5, 15] was 50. For the same compound, the “Plant response rating, Prickly Sida” value [5, 16] was 100, the “Plant response rating, Prickly Sida” value [5, 17] was 100 and the “Plant response rating, Prickly Sida” value [5, 18] was 100. The “Plant response rating, Wheat” value [10, 25] was 35, the “Plant response rating, Wheat” value [10, 22] was 20 and the “Plant response rating, Wheat” value [10, 23] was 0. For the same compound, the “Plant response rating, Groundsel” value [2, 16] was 95, the “Plant response rating, Groundsel” value [2, 17] was 100 and the “Plant response rating, Groundsel” value [2, 18] was 100. The “Plant response rating, Windgrass” value [11, 25] was 70, the “Plant response rating, Windgrass” value [11, 22] was 65 and the “Plant response rating, Windgrass” value [11, 23] was 60. The “Plant response rating, Chickweed” value [3, 15] was 90, the “Plant response rating, Chickweed” value [3, 16] was 90 and the “Plant response rating, Chickweed” value [3, 17] was 100. The “Plant response rating, Chickweed” value [3, 18] was 100, the “Plant response rating, Bromegrass, Downy” value [12, 24] was 55 and the “Plant response rating, Bromegrass, Downy” value [12, 25] was 65. The “Plant response rating, Bromegrass, Downy” value [12, 22] was 45, the “Plant response rating, Bromegrass, Downy” value [12, 23] was 45 and the “Plant response rating, Ryegrass, Italian” value [13, 25] was 65. The “Plant response rating, Ryegrass, Italian” value [13, 22] was 40, the “Plant response rating, Ryegrass, Italian” value [13, 23] was 35 and the “Barley, Winter plant response rating” value [14, 19] was 30. The “Plant response rating, Barley, Winter” value [14, 24] was 30, the “Plant response rating, Barley, Winter” value ([14]; postemergence, 125 g ai/ha, scale 0 to 100 (0 no effect, 100 complete control)) was 10 and the “Plant response rating, Barley, Winter” value ([14]; postemergence, 62 g ai/ha, scale 0 to 100 (0 no effect, 100 complete control)) was 10. The “Plant response rating, Ragweed” value [4, 15] was 50, the “Plant response rating, Ragweed” value [4, 16] was 75 and the “Plant response rating, Ragweed” value [4, 17] was 95. The “Plant response rating, Ragweed” value [4, 18] was 100.
